This is an account of results in patent US20220056018A1, “SREBP INHIBITORS COMPRISING A THIOPHENE CENTRAL RING” (Capulus Therapeutics, LLC, priority 2019, published 2022).

Data set [1] in a line: Stability in mouse liver microsomes. It counts as in vitro ADME. As to the method: (§1) Compounds were evaluated for stability in human liver microsomes. A 10 mM stock solution of the compound being evaluated was prepared in DMSO and diluted with water:acetonitrile (1:1) to a concentration of 1 mM. A working concentration of 100 μM was prepared by further dilution with water:acetonitrile (1:1). To make the preincubation mixture, 2.5 μL of the diluted compound was combined with 75 μL of human liver microsomes at 3.33 mg/mL, and 85 μL of 100 mM potassium phosphate buffer, and this mixture was pre-incubated for 10 min at 37° C. To make the 60 minute mixture without cofactor, 32.5 μL of the preincubation mixture was combined with 17.5 μL of 100 mM potassium phosphate buffer and incubated for 60 min at 37° C. To make the 0 min sample with cofactor (NADPH), 16.25 μL of the preincubation mixture was combined with 200 μL of acetonitrile containing internal standard and 8.75 μL of cofactor (NADPH). To make the incubation mixture, 62 μL of cofactor (2.85 mM) was combined with the remaining incubation mixture, and incubated for 60 min at 37° C. To prepare the sample mixture to be evaluated, 25 μL incubation mixture was combined with 200 μL of acetonitrile containing internal standard and vortexed for 5 min at 1200 rpm, then centrifuged for 10 min at 4000 rpm. The supernatant was diluted 2 fold with water and injected on LC-MS/MS. The sample mixture was evaluated by LC-MS/MS using 10 mM ammonium acetate with 0.100 FA as the aqueous mobile phase, and methanol as the organic mobile phase.
Half-Life Mouse Microsomes:
Compounds were evaluated in mouse liver microsomes following a similar procedure as described above for human liver microsomes. A similar procedure could be used to evaluate compounds in rat liver microsomes.

The next data set has as its system SREBP. Put plainly: Reporter Screening Assay (SRE-luciferase reporter, HepG2). It counts as cell-based. To be noted: Homo sapiens; SRE-luciferase reporter HepG2 cells, 24 hours, 0.01 uM to 10 uM; read-out: I: Reporter Screening Assay (Ave EC50 (nM)). As to the method:
Reporter Screening Assay: This assay was used to evaluate the effect on transcriptional activity SREBP of selected compounds using an SRE-luciferase reporter construct. On day 1, 10,000 cells were seeded in a 96 well (white) plate as per the plate map in Growth media without antibiotics. Cells were incubated at 37° C. for 8 hours. After 8 hours, cells were washed with DPBS for complete removal of FBS. DPBS was completely removed and Growth media was replaced with phenol free treatment medium (90 μl) with different FBS concentrations. The cells were then incubated at 37° C. for 24 hours with varying doses (0.01 uM to 10 uM) of compounds. Then a Luciferase assay was performed.
Reagents for performing Luciferase assay were stored at −20° C. To a tube of lyophilized assay substrate was added 1 mL Substrate Solvent and mixed well. The Substrate tube after reconstitution was covered with aluminum foil so as to keep it protected from light. The assay buffer was thawed to room temperature. To 20 mL Assay Buffer was added 200 μL of reconstituted 100× Substrate and mixed well. The reconstituted substrate as well as the assay solution (buffer+substrate) was protected from light throughout the procedure by keeping it covered with aluminum foil. Using a multi-channel pipette, 100 μL Assay Solution (buffer+substrate) was added directly to each sample well in Plate 1, which was incubated for 30 min (plate was covered with aluminum foil). After 30 min incubation, the plate was read for total luminescence. Each well was read for 2 seconds in a plate luminometer. (Microplate reader Envision Microplate reader from Perkin Elmer). Precaution was taken to incubate plate exactly for 30 min prior to reading on the plate reader.
SREBPv1 Reporter cell line: HepG2—#32251. Growth Medium: MEM (Corning 10-010), 10% FBS, 1% GlutaMax (Invitrogen Catalog #35050061), […] (Invitrogen Catalog # A1113803) and 1% Penicillin-Streptomycin (Pen-Strep). Treatment Media: Phenol-free MEM (Invitrogen Catalog #51200-038) and 1% GlutaMax (Invitrogen Catalog #35050061). Luciferase Assay: LightSwitch Luciferase Assay Kit (Catalog #32032). LDH assay: Pierce LDH Cytotoxicity Assay Kit (Catalog # SD249616).
For orientation: In a reporter assay the amount or activity of a reporter protein is the signal.

Data set [2] is described as follows: Stability in human liver microsomes. The data set is classed as in vitro ADME. To be noted: 37° C., NADPH. The method, then:
Half-Life Human Microsomes:
as §1
Background: Liver microsomes are vesicles of endoplasmic reticulum, rich in cytochrome P450 enzymes.

Molecules are shown by their SMILES.

For `CC(C)OC(=O)Nc1ccc(-c2cc(-c3ccnc(C4CC4)c3)cs2)c(Cl)c1` [Compound I-8966, Isopropyl (3-chloro-4-(4-(2-cyclopropylpyridin-4-yl)thiophen-2-yl)phenyl)carbamate], in data set [1], the “percent parent remaining after 60 min in liver microsomes” value (“percent parent remaining after 60 min” below) is given as “+++ (>60.1 = +++)”. For the same compound, in the data set with SREBP, the EC50 was less than 249 nM. Also, the “percent of compound remaining after 60 min in human liver microsomes” value (“percent of compound remaining” for short) in data set [2] is reported as “+++ (>60.1 = +++)”.
On to `CC(C)OC(=O)Nc1ccc(-c2cc(-c3ccnc(C4(CO)CC4)c3)cs2)c(Cl)c1` [Compound I-8980, Isopropyl (3-chloro-4-(4-(2-(1-(hydroxymethyl)cyclopropyl)pyridin-4-yl)thiophen-2-yl)phenyl)carbamate], for which, in data set [1], the “percent parent remaining after 60 min” value was “+++ (>60.1 = +++)”. Further, in the data set on SREBP, the EC50 was less than 249 nM. Further, the “percent of compound remaining” value in data set [2] was “+++ (>60.1 = +++)”.
In the case of `CS(=O)(=O)Nc1ccc(-c2cc(-c3ccnc(C4(CO)CC4)c3)cs2)c(Cl)c1` [Compound I-9002, N-(3-chloro-4-(4-(2-(1-(hydroxymethyl)cyclopropyl)pyridin-4-yl)thiophen-2-yl)phenyl)methanesulfonamide], the “percent parent remaining after 60 min” value in data set [1] was “+++ (>60.1 = +++)”. The EC50 in the data set with SREBP was less than 249 nM. For the same compound, the “percent of compound remaining” value in data set [2] is “+++ (>60.1 = +++)”.
Consider `CN(c1ccc(-c2cc(-c3ccnc(C4CC4)c3)cs2)c(Cl)c1)S(C)(=O)=O` [Compound I-9037, N-(3-chloro-4-(4-(2-cyclopropylpyridin-4-yl)thiophen-2-yl)phenyl)-N-methylmethanesulfonamide], for which, in data set [1], the “percent parent remaining after 60 min” value is given as “+++ (>60.1 = +++)”. Moreover, in the data set on SREBP, the EC50 is less than 249 nM. Further, the “percent of compound remaining” value in data set [2] is given as “+++ (>60.1 = +++)”.
For `CN(C(=O)OC1CC1)c1ccc(-c2cc(-c3ccnc(C4CC4)c3)cs2)c(Cl)c1` [Compound I-9038, cyclopropyl (3-chloro-4-(4-(2-cyclopropylpyridin-4-yl)thiophen-2-yl)phenyl)(methyl)carbamate], the “percent parent remaining after 60 min” value in data set [1] was “+++ (>60.1 = +++)”. The EC50 with SREBP is less than 249 nM. Moreover, the “percent of compound remaining” value in data set [2] is “+++ (>60.1 = +++)”.
`CC(C)(C#N)c1cc(-c2csc(-c3ccc(NS(C)(=O)=O)cc3Cl)c2)ccn1` [Compound I-9039, N-(3-chloro-4-(4-(2-(2-cyanopropan-2-yl)pyridin-4-yl)thiophen-2-yl)phenyl)methanesulfonamide]: the “percent parent remaining after 60 min” value in data set [1] is recorded as “+++ (>60.1 = +++)”. Further, the EC50 in the data set on SREBP was more than 500 nM. Further, the “percent of compound remaining” value in data set [2] was “+++ (>60.1 = +++)”.
For `CN(C(=O)OC1CC1)c1ccc(-c2cc(-c3ccnc(C4(CO)CC4)c3)cs2)c(Cl)c1` [Compound I-9042, Cyclopropyl (3-chloro-4-(4-(2-(1-(hydroxymethyl)cyclopropyl)pyridin-4-yl)thiophen-2-yl)phenyl)(methyl)carbamate], the “percent parent remaining after 60 min” value in data set [1] is listed as “+++ (>60.1 = +++)”. In addition, the EC50 in the data set on SREBP was less than 249 nM. The “percent of compound remaining” value in data set [2] was “++ (30.1-60 = ++)”.
The like results for `CC(C)(CN)c1cc(-c2csc(-c3ccc(NS(C)(=O)=O)cc3Cl)c2)ccn1` [Compound I-9049, N-(4-(4-(2-(1-amino-2-methylpropan-2-yl)pyridin-4-yl)thiophen-2-yl)-3-chlorophenyl)methanesulfonamide] were, in that order, “+++ (>60.1 = +++)”, more than 500 nM and “+++ (>60.1 = +++)”.
For `CC(C)OC(=O)Nc1ccc(-c2cc(-c3ccnc(CC(C)(C)O)c3)cs2)c(Cl)c1` [Compound I-9051, isopropyl (3-chloro-4-(4-(2-(2-hydroxy-2-methylpropyl)pyridin-4-yl)thiophen-2-yl)phenyl)carbamate], the “percent parent remaining after 60 min” value in data set [1] is on record as “+++ (>60.1 = +++)”. Also, the EC50 in the data set on SREBP was more than 500 nM. The “percent of compound remaining” value in data set [2] was “+++ (>60.1 = +++)”.
For `CN(c1ccc(-c2cc(-c3ccnc(C4(CO)CC4)c3)cs2)c(Cl)c1)S(C)(=O)=O` [Compound I-9056, N-(3-chloro-4-(4-(2-(1-(hydroxymethyl)cyclopropyl)pyridin-4-yl)thiophen-2-yl)phenyl)-N-methylmethanesulfonamide], the “percent parent remaining after 60 min” value in data set [1] is recorded as “+++ (>60.1 = +++)”. The EC50 with SREBP was less than 249 nM. In data set [2], the “percent of compound remaining” value is listed as “++ (30.1-60 = ++)”.
For the compound `CC(C)OC(=O)Nc1ccc(-c2cc(-c3ccnc(OC4CC4)c3)cs2)c(Cl)c1` [Compound I-9060, isopropyl (3-chloro-4-(4-(2-cyclopropoxypyridin-4-yl)thiophen-2-yl)phenyl)carbamate], the “percent parent remaining after 60 min” value in data set [1] is “+++ (>60.1 = +++)”. Moreover, the EC50 in the data set with SREBP was less than 249 nM. In addition, in data set [2], the “percent of compound remaining” value is “+++ (>60.1 = +++)”.
As for `CC(C)OC(=O)Nc1ccc(-c2cc(-c3ccnc4c3OCCO4)cs2)c(Cl)c1` [Compound I-9062, isopropyl (3-chloro-4-(4-(2,3-dihydro-[1,4]dioxino[2,3-b]pyridin-8-yl)thiophen-2-yl)phenyl)carbamate], in data set [1], the “percent parent remaining after 60 min” value is on record as “+++ (>60.1 = +++)”. In the data set on SREBP, the concentration for a half-maximal effect (EC50) is less than 249 nM. Further, the “percent of compound remaining” value in data set [2] is given as “+++ (>60.1 = +++)”.
For the compound `CC(C)(O)c1cc(-c2csc(-c3ccc(NS(C)(=O)=O)cc3Cl)c2)ccn1` [Compound I-9064, N-(3-chloro-4-(4-(2-(2-hydroxypropan-2-yl)pyridin-4-yl)thiophen-2-yl)phenyl)methanesulfonamide], the “percent parent remaining after 60 min” value in data set [1] is recorded as “+++ (>60.1 = +++)”. In addition, the EC50 with SREBP is less than 249 nM. The “percent of compound remaining” value in data set [2] is recorded as “+++ (>60.1 = +++)”.
Turning to `CC(C)(O)c1cc(-c2csc(-c3ccc(NC(=O)OC4CC4)cc3Cl)c2)ccn1` [Compound I-9065, cyclopropyl (3-chloro-4-(4-(2-(2-hydroxypropan-2-yl)pyridin-4-yl)thiophen-2-yl)phenyl)carbamate], the “percent parent remaining after 60 min” value in data set [1] is “+++ (>60.1 = +++)”. Moreover, the EC50 in the data set with SREBP was more than 500 nM. In addition, the “percent of compound remaining” value in data set [2] is “+++ (>60.1 = +++)”.
`CC(C)(O)C(O)c1cc(-c2csc(-c3ccc(NS(C)(=O)=O)cc3Cl)c2)ccn1` (stereo not drawn) [Compound I-9075, N-(3-chloro-4-(4-(2-(1,2-dihydroxy-2-methylpropyl)pyridin-4-yl)thiophen-2-yl)phenyl)methanesulfonamide]: the “percent parent remaining after 60 min” value in data set [1] is “+++ (>60.1 = +++)”. Also, the EC50 with SREBP was more than 500 nM. Moreover, the “percent of compound remaining” value in data set [2] is listed as “+++ (>60.1 = +++)”.
On to `O=C(Nc1ccc(-c2cc(-c3ccnc(C4(CO)CC4)c3)cs2)c(Cl)c1)OC1CC1` [Compound I-9082, cyclopropyl (3-chloro-4-(4-(2-(1-(hydroxymethyl)cyclopropyl)pyridin-4-yl)thiophen-2-yl)phenyl)carbamate], for which the “percent parent remaining after 60 min” value in data set [1] was “++ (30.1-60 = ++)”. The EC50 in the data set on SREBP is more than 500 nM. The “percent of compound remaining” value in data set [2] is “+++ (>60.1 = +++)”.

For orientation: EC50 means the concentration needed to bring the measured effect to its halfway point.
